Structures can show the parent of a compound that is named as a salt. Where two headings read alike, the source gives them in different places.
Target: T1, HCV NS3 protease (full length NS34a) (Hepatitis C virus genotype 1b, UniProt P26663)
T1 construct: The protease activity of the full length NS34a was measured using a FRET-based assay; made in house
Assay: HCV NS3 protease assay (FRET, full length NS34a)
Type: biochemical
Description: The HCV NS3 protease functions have been extensively studied and are considered as potential targets for antiviral therapy: see for example the many references listed in the introductory section of this application. Therefore, the activity of the compounds of the invention as anti-HCV agents was assessed using a full length HCV NS3 protease.
The protease activity of the full length NS34a was measured using a FRET-based assay utilizing a peptide substrate derived from the NS4AB cleavage site (Anaspec) and labelled at one end with a quencher (QXL520) and at the other with a fluorophore (5-FAMsp). NS34a (produced in-house by literature methods) was incubated with test compounds and peptide substrate in 50 mM Tris pH8, 20 mM DTT, 1% CHAPS, 10% glycerol and 5% DMSO. The reaction was followed by monitoring the change in fluorescence on a Molecular Devices Gemini plate reader for 30 minutes at room temperature. Initial rates were calculated from the progress curves using SoftMax Pro (Molecular Devices). IC50 values were then calculated from replicate curves using Prism GraphPad software.

[1] = IC50 values of 10-150 μM against the protease activity of the full length NS34a, or at least 40% inhibition of protease activity at a concentration of 100 μM
[2] = protease activity of full length NS34a, FRET peptide substrate, read-out: Activity IC50

T1 sequence (P26663 1658-1711): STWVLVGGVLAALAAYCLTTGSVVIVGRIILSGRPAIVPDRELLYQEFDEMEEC
T1 sequence (P26663 1027-1657): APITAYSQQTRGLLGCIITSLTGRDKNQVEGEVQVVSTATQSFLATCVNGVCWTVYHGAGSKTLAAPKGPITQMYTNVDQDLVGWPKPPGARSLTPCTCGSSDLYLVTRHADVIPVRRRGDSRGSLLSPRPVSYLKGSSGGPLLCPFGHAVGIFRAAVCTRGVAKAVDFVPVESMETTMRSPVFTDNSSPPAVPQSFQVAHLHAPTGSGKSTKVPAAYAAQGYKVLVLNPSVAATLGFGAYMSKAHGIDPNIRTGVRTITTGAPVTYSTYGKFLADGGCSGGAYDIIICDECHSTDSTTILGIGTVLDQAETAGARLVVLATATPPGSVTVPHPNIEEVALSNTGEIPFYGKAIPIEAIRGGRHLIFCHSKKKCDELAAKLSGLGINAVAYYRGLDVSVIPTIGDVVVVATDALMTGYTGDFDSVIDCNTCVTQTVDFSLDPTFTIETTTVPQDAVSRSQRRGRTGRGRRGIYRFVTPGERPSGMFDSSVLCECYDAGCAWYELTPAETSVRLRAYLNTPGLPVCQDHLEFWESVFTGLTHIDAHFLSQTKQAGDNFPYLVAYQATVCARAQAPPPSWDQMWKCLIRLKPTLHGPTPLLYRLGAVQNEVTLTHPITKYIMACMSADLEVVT

In the case of CC[C@@H](N[C@H](C)c1ccc[nH]c1=O)c1ccc(Cl)c(Oc2ccccc2)c1F (single isomer, unassigned) [Example 314], the IC50 [1] is reported as 10 to 150 µM.
With CCCCC(N)c1ccc(F)c(Oc2ccccc2)c1F (centres unmarked) [Example 10] the IC50 [2] was 1.8 µM.
NC(CC(=O)Nc1ccncc1)c1ccc(F)c(Oc2ccccc2)c1F (centres unmarked) [Example 20, 3-Amino-3-(2,4-difluoro-3-phenoxy-phenyl)-N-pyridin-4-yl-propionamide. dihydrochloride] gave an IC50 [1] of 10 to 150 µM.
Compound CCC(NCc1cnc(C)n1C)c1ccc(F)c(Oc2ccccc2)c1F (centres unmarked) [Example 23] has an IC50 [1] of 10 to 150 µM.
Compound CCC(NC1CCCC1)c1ccc(F)c(Oc2ccccc2)c1F (centres unmarked) [Example 30] has an IC50 [1] of 10 to 150 µM.
CCC(NCc1c[nH]c2ccccc12)c1ccc(F)c(Oc2ccccc2)c1F (centres unmarked) [Example 31] was tested, and the IC50 [2] was 7.1 µM.
Work on CCC(NC(C)c1ccn[nH]1)c1ccc(F)c(Oc2ccccc2)c1F (centres unmarked) [Example 33] yielded an IC50 [1] of 10 to 150 µM.
Work on CCC(NCc1ccc2[nH]ccc2c1)c1ccc(F)c(Oc2ccccc2)c1F (centres unmarked) [Example 35] yielded an IC50 [1] of 10 to 150 µM.
For CCC(NC(C)C1CC1)c1ccc(F)c(Oc2ccccc2)c1F (centres unmarked) [Example 36], the IC50 [1] was 10 to 150 µM.
In the case of CCC(NCc1cnc[nH]1)c1ccc(F)c(Oc2ccccc2)c1F (centres unmarked) [Example 37], the IC50 [2] is reported as 5.6 µM.
CCc1ncc(CNC(CC)c2ccc(F)c(Oc3ccccc3)c2F)[nH]1 (centres unmarked) [Example 38] was tested, and the IC50 [2] was 9.7 µM.
C=CCNC(CC)c1ccc(F)c(Oc2ccccc2)c1F (centres unmarked) [Example 39, Allyl-[1-(2,4-difluoro-3-phenoxy-phenyl)-propyl]-amine. hydrochloride] gave an IC50 [1] of 10 to 150 µM.
Compound NC(C1=CCCCC1)c1ccc(F)c(Oc2ccccc2)c1F (centres unmarked) [Example 40] has an IC50 [2] of 6.3 µM.
Work on NC(c1ccc(F)c(Oc2ccccc2)c1F)C1CCOCC1 (centres unmarked) [Example 41] yielded an IC50 [2] of 7.1 µM.
CCC(NCCOC)c1ccc(F)c(Oc2ccccc2)c1F (centres unmarked) [Example 42, [1-(2,4-Difluoro-3-phenoxy-phenyl)-propyl]-(2-methoxy-ethyl)-amine. hydrochloride] showed an IC50 [1] of 10 to 150 µM.
Work on CCC(NC(CO)CO)c1ccc(F)c(Oc2ccccc2)c1F (centres unmarked) [Example 43] yielded an IC50 [2] of 6.6 µM.
NC(CO)c1ccc(F)c(Oc2ccccc2)c1F (centres unmarked) [Example 46, 2-Amino-2-(2,4-difluoro-3-phenoxy-phenyl)-ethanol. hydrochloride] gave an IC50 [1] of 10 to 150 µM.
CCC(NC(C)CC(=O)NC)c1ccc(F)c(Oc2ccccc2)c1F (centres unmarked) [Example 48] was tested, and the IC50 [1] was 10 to 150 µM.
CCC(NC(C)COC)c1ccc(F)c(Oc2ccccc2)c1F (centres unmarked) [Example 51] gave an IC50 [1] of 10 to 150 µM.
CC[C@@H](N[C@@H](C)C(N)=O)c1ccc(Cl)c(Oc2ccccc2)c1F [Example 54, (S)-2-[(R)-1-(4-Chloro-2-fluoro-3-phenoxy-phenyl)-propylamino]-propionamide hydrochloride] showed an IC50 [2] of 1.4 µM.
NC(c1cccnc1)c1ccc(F)c(Oc2ccccc2)c1F (centres unmarked) [Example 59A, C-(2,4-Difluoro-3-phenoxy-phenyl)-C-pyridin-3-yl-methylamine. dihydrochloride] was tested, and the IC50 [1] was 10 to 150 µM.
CCC(NC[C@@H](O)CO)c1ccc(F)c(Oc2ccccc2)c1F (some centres unmarked) [Example 69] gave an IC50 [2] of 6 µM.
With N[C@@H](c1ccc(F)c(Oc2ccccc2)c1F)[C@@H]1CCC(=O)NC1 [Example 74B] the IC50 [1] was 10 to 150 µM.
NCCC(N)c1ccc(F)c(Oc2ccccc2)c1F (centres unmarked) [Example 94] showed an IC50 [1] of 10 to 150 µM.
C[C@H](CC(N)=O)N[C@@H](CC1CCNCC1)c1ccc(F)c(Oc2ccccc2)c1F [Example 99] was tested, and the IC50 [1] was 10 to 150 µM.
For C=CCN[C@@H](CC)c1ccc(F)c(Oc2ccccc2)c1F [Example 102, Allyl-[(S)-1-(2,4-difluoro-3-phenoxy-phenyl)-propyl]-amine.hydrochloride], the IC50 [1] was 10 to 150 µM.
CCc1ccc(C(N)CC2CCNCC2)c(F)c1Oc1ccccc1 (centres unmarked) [Example 105B, 1-(4-Ethyl-2-fluoro-3-phenoxy-phenyl)-2-piperidin-4-yl-ethylamine.dihydrochloride] was tested, and the IC50 [1] was 10 to 150 µM.
CS(=O)(=O)Nc1cccc(Oc2c(F)ccc(C(N)CC3CCNCC3)c2F)c1 (centres unmarked) [Example 108B, N-{3-[3-(1-Amino-2-piperidin-4-yl-ethyl)-2,6-difluoro-phenoxy]-phenyl}-methane-sulfonamide.dihydrochloride] gave an IC50 [2] of 1.9 µM.
Work on CC[C@H](N)c1ccc(Cl)c(Oc2cccc(CO)c2)c1F [Example 111, {3-[3-((S)-1-Amino-propyl)-6-chloro-2-fluoro-phenoxy]-phenyl}-methanol.hydrochloride] yielded an IC50 [2] of 0.63 µM.
For CCC(Nc1ccncc1)c1ccc(F)c(Oc2ccccc2)c1F (centres unmarked) [Example 113, [1-(2,4-Difluoro-3-phenoxy-phenyl)-propyl]-pyridin-4-yl-amine.hydrochloride], the IC50 [2] was 0.68 µM.
CC[C@@H](N[C@H](C)CC(N)=O)c1ccc(Cl)c(Oc2cccc(CO)c2)c1F [Example 117] showed an IC50 [1] of 10 to 150 µM.
CC[C@@H](N[C@H](C)CC(N)=O)c1ccc(F)c(Oc2ccccc2)c1F [Example 120] was tested, and the IC50 [1] was 10 to 150 µM.
For CC[C@@H](N[C@@H](C)CC(N)=O)c1ccc(F)c(Oc2ccccc2)c1F [Example 121], the IC50 [2] was 0.21 µM.
For CC[C@@H](NCCC(N)=O)c1ccc(F)c(Oc2ccccc2)c1F [Example 122], the IC50 [2] was 1 µM.
CCC[C@@H](N[C@H](C)CC(N)=O)c1ccc(Cl)c(Oc2ccccc2)c1F [Example 126] was tested, and the IC50 [1] was 10 to 150 µM.
In the case of CC[C@H](N[C@@H](C)c1c[nH]cn1)c1ccc(Cl)c(Oc2ccccc2)c1F [Example 129], the IC50 [2] is reported as 0.36 µM.
CC[C@@H](N[C@H](C)c1c[nH]cn1)c1ccc(Cl)c(Oc2ccccc2)c1F [Example 130] showed an IC50 [2] of 1.3 µM.
For CC[C@@H](N[C@H](C)CC(=O)NC)c1ccc(Cl)c(Oc2ccccc2)c1F [Example 131B, (R)-3-[(R)-1-(4-Chloro-2-fluoro-3-phenoxy-phenyl)-propylamino]-N-methyl-butyramide. hydrochloride], the IC50 [1] was 10 to 150 µM.
Work on CC[C@H](N)c1ccc(Cl)c(Oc2cccc(C(C)O)c2)c1F (stereo partly drawn) [Example 132B, 1-{3-[3-((S)-1-Amino-propyl)-6-chloro-2-fluoro-phenoxy]-phenyl}-ethanol.hydrochloride] yielded an IC50 [2] of 0.52 µM.
Compound CC[C@H](N)c1ccc(Cl)c(Oc2cccc(C(=O)N3CCCC3)c2)c1F [Example 133, {3-[3-((S)-1-Amino-propyl)-6-chloro-2-fluoro-phenoxy]-phenyl}-pyrrolidin-1-yl-methanone.hydrochloride] has an IC50 [2] of 0.7 µM.
CC[C@H](CC(N)=O)N[C@H](CC)c1ccc(Cl)c(Oc2ccccc2)c1F [Example 135] gave an IC50 [2] of 9.7 µM.
With CC[C@H](Nc1cccc2c1CNC2)c1ccc(F)c(Oc2ccccc2)c1F [Example 136, [(S)-1-(2,4-Difluoro-3-phenoxy-phenyl)-propyl]-(2,3-dihydro-1H-isoindol-4-yl)-amine.hydrochloride] the IC50 [2] was 1.1 µM.
CC[C@H](N)c1ccc(Cl)c(Oc2cccc(C(=O)N(C)Cc3cnn(Cc4ccccc4)c3)c2)c1F [Example 138, 3-[3-((S)-1-Amino-propyl)-6-chloro-2-fluoro-phenoxy]-N-(1-benzyl-1H-pyrazol-4-ylmethyl)-N-methyl-benzamide.hydrochloride] was tested, and the IC50 [2] was 0.63 µM.
CCNC(=O)O[C@H](C)c1cccc(Oc2c(Cl)ccc([C@@H](N)CC)c2F)c1 [Example 139, Ethyl-carbamic acid (R)-1-{3-[3-((S)-1-amino-propyl)-6-chloro-2-fluoro-phenoxy]-phenyl}-ethyl ester.hydrochloride] was tested, and the IC50 [2] was 1.3 µM.
In the case of CCNC(=O)O[C@@H](C)c1cccc(Oc2c(Cl)ccc([C@@H](N)CC)c2F)c1 [Example 140], the IC50 [2] is reported as 1.3 µM.
CC[C@H](N)c1ccc(Cl)c(Oc2cccc(C(=O)N(C)Cc3cn[nH]c3)c2)c1F [Example 141, 3-[3-((S)-1-Amino-propyl)-6-chloro-2-fluoro-phenoxy]-N-methyl-N-(1H-pyrazol-4-ylmethyl)-benzamide.hydrochloride] gave an IC50 [2] of 2.8 µM.
With CC[C@@H](N[C@@H](CC(N)=O)C(C)C)c1ccc(Cl)c(Oc2ccccc2)c1F [Example 142] the IC50 [1] was 10 to 150 µM.
In the case of CC[C@H](Nc1ccncc1)c1ccc(F)c(Oc2ccccc2)c1F [Example 144, [(S)-1-(2,4-Difluoro-3-phenoxy-phenyl)-propyl]-pyridin-4-yl-amine. hydrochloride], the IC50 [2] is reported as 0.4 µM.
Work on CC[C@@H](N[C@H](C)CC(=O)NCCO)c1ccc(Cl)c(Oc2ccccc2)c1F [Example 146] yielded an IC50 [2] of 3.1 µM.
Work on CC[C@@H](N[C@@H](C)CC(=O)NCCO)c1ccc(Cl)c(Oc2ccccc2)c1F [Example 147] yielded an IC50 [2] of 0.11 µM.
In the case of CC[C@@H](N[C@@H](C)c1[nH]cnc1C)c1ccc(Cl)c(Oc2ccccc2)c1F [Example 148], the IC50 [2] is reported as 1.7 µM.
CC[C@@H](N)c1ccc(Cl)c(Oc2cccc(F)c2)c1F [Example 149] gave an IC50 [2] of 3 µM.
Work on CC[C@@H](N)c1ccc(Cl)c(Oc2ccc(F)cc2)c1F [Example 150] yielded an IC50 [2] of 2 µM.
Compound CC[C@@H](N)c1ccc(Cl)c(Oc2cccc(NS(C)(=O)=O)c2)c1F [Example 151] has an IC50 [2] of 3.1 µM.
With CC[C@@H](N)c1ccc(Cl)c(Oc2cccc([N+](=O)[O-])c2)c1F [Example 152] the IC50 [2] was 6.9 µM.
For CC[C@@H](N)c1ccc(Cl)c(Oc2ccc(Cl)nn2)c1F [Example 153], the IC50 [1] was 10 to 150 µM.
CC[C@@H](N)c1ccc(Cl)c(Oc2ccc(N)cn2)c1F [Example 156, 6-[3-((R)-1-Amino-propyl)-6-chloro-2-fluoro-phenoxy]-pyridin-3-ylamine.dihydrochloride] was tested, and the IC50 [2] was 6.2 µM.
CC[C@@H](N)c1ccc(Cl)c(Oc2cccc(CNS(C)(=O)=O)c2)c1F [Example 157] gave an IC50 [2] of 2.1 µM.
Compound CC[C@@H](N)c1ccc(Cl)c(Oc2ccc(C#N)cc2)c1F [Example 158] has an IC50 [2] of 0.42 µM.

Reference: patent US20140288040A1, “SUBSTITUTED BENZYLAMINE COMPOUNDS, THEIR USE IN MEDICINE, AND IN PARTICULAR THE TREATMENT OF HEPATITIS C VIRUS (HCV) INFECTION” (ASTEX THERAPEUTICS LIMITED, priority 2011, published 2014)
